Results on three molecules are retold here after US20160120881A1, “USE OF BUFODIENOLIDES IN DIAGNOSING AND TREATING ESSENTIAL HYPERTENSION” (priority 2014, published 2016).

Data set [1] deals with severe PPH in rats. The following applies: cited from earlier work.
The conditions of data set [2]: two phase I human studies, dosages calculated to have beneficial effects on human PPH (Sidharta et al.); cited from earlier work.
The conditions of data set [3]: in vitro (Fedorova et al. 1997; Lopatin et al. 1999); cited from earlier work.
The test system of data set [4] is angiotensin-infused rats. Put plainly: Systolic blood pressure in angiotensin-infused rats (ANG). The format is in vivo, rat. The following applies: angiotensin infused animals given resibufogenin (ANGR) vs ANG; FIG. 1. The source says:
(§1) FIG. 1. Mean systolic blood pressure (BP) values in sham (SHM) animals, angiotensin-infused rats (ANG), angiotensin infused animals given resibufogenin (ANGR), normal rats rendered hypertensive by the infusion of saline (volume expansion induced hypertensive rats)(NDS), NDS rats given resibufogenin (NDSR).
(§2) This compound differs from MBG only in the absence of a hydroxyl group in the beta-5 position of the molecule. […] Current therapy of volume expansion hypertension involves the administration of a diuretic. RBG can be considered in place of the diuretic as the therapy of choice of volume expansion-mediated hypertension or can be utilized in combination with the diuretic so that smaller dosages of each agent could be utilized. The latter strategy can result in fewer side effects from either drug.

The test system of data set [5] is rodent brain contusion model. Description: Rodent brain contusion model. The following applies: given 1 hour after the insult. The format is in vivo. The source says:
(§3) MBG is elevated in other syndromes such as preeclampsia and traumatic brain injury. It has been shown that the administration of the antagonist of MBG, resibufagenin (RBG) is therapeutically effective. […] RBG antagonizes MBG activity and may be an effective treatment for hypertension, ARDS, traumatic brain injury, and preeclampsia. Certain embodiments are directed to treating a hypertensive patient having elevated levels of MBG by administering an MBG antagonist or anti-MBG agent. In certain aspects the anti-MBG agent is resibufagenin (RBG).

For data set [6], the system named is preeclampsia in animal models. Description: Preeclampsia animal models. In kind it is in vivo.
From the text: as §3

Data set [7] concerns volume expansion induced hypertensive rats. The following applies: experimental animals, volume expansion-mediated hypertension (Danchuk et al. 2008); cited from earlier work.
The subject of data set [8] is angiotensin-infused rats. The following applies: animals subjected to angiotensin excess (Danchuk et al. 2008); cited from earlier work.
The subject of data set [9] is volume expansion induced hypertensive rats. Put plainly: Systolic blood pressure in volume expansion induced hypertensive rats (saline infusion, NDS). The format is in vivo, rat. The settings on record: NDS rats given resibufogenin (NDSR) vs NDS; FIG. 1.
From the text: as §1, §2

Each structure is given as a SMILES string.

`CCCNS(=O)(=O)Nc1ncnc(OCCOc2ncc(Br)cn2)c1-c1ccc(Br)cc1` [macitentan]: the Pulmonary arterial hypertension entry in data set [1] (severe PPH (Kunita-Takanezawa et al. 2014)) is “reversed severe pulmonary arterial hypertension”. In addition, in data set [1] (severe PPH), the Adverse effects result was “no adverse effects”, the Cardiac output entry is recorded as “preserved cardiac output”, the RV systolic pressure result is “lowered RV systolic pressure” and the Right ventricular hypertrophy result is “reversed right ventricular hypertrophy”. The Adverse effects result in data set [2] is on record as “no adverse effects of the drug were noted”.
Consider `C[C@]12CC[C@H](O)C[C@@]1(O)CC[C@@H]1[C@@H]2CC[C@]2(C)[C@@H](c3ccc(=O)oc3)C[C@H]3O[C@]132` [marinobufagenin (MBG), marinobufagenin], for which, in [3], the Vasoconstrictor action result was “acts in vitro as a vasoconstrictor”.
As for `C[C@]12CC[C@H](O)C[C@H]1CC[C@@H]1[C@@H]2CC[C@]2(C)[C@@H](c3ccc(=O)oc3)C[C@H]3O[C@]132` [resibufogenin, epoxy-3β-hydroxy-5β-bufa-20,22-dienolide], the “Mean systolic blood pressure (BP)” value in data set [4] was “only in the volume expanded animals”; in data set [9], “reduced blood pressure only in the volume expanded animals”. For the same molecule, in data set [5], the Tissue injury entry is “amelioration of tissue injury”. Further, the Preeclampsia entry in data set [6] is recorded as “prevents preeclampsia”. Besides, the Blood pressure elevation result in data set [7] is “resolves blood pressure elevations”. Further, the Elevated blood pressure result in data set [8] was “does not lower elevated blood pressure”.
